Here are results for 69 molecules from ChEMBL document CHEMBL3507680, “University of Dundee, Gates Library screen for HepG2 cell viability”.

SMILES strings stand for the structures.

This series in a line: Human HepG2 cell viability assay in 384 well format. Type of series: toxicity, cell-based. Set-up: dose 125 nL, time 70.5 hour; cytotoxicity at 70.5 h: concentration not given beside the values. The conditions noted are these: HepG2 cells, read-out: Inhibition.

Take `CN(CCCSc1ccccc1)C(=O)Cn1ncc(N(C)C)cc1=O`: the cytotoxicity at 70.5 h was -7.24%.

With `CC1(C)Cc2nc(C(C)(C)C)ncc2C(NC(=O)CN)C1` (centres undefined), the cytotoxicity at 70.5 h was -10.1%.

`Cc1cccc2c1nc(CCO)n2-c1ccc(C(=O)N2CCOCC2)o1`: the cytotoxicity at 70.5 h was -1.12%.

`Cn1ccnc1SCCNC(=O)c1c[nH]nc1C1CCCCC1`: the cytotoxicity at 70.5 h is -8.06%.

`Cc1cc(NCCc2cnccn2)nc(-c2ccccc2O)n1`: the cytotoxicity at 70.5 h was -12.4%.

As to `Cc1[nH]ccc1C(=O)N1CCC2(CC1)c1nc[nH]c1CCN2S(C)(=O)=O`, the cytotoxicity at 70.5 h is -4.51%.

Regarding `Cc1cnc(CNCc2cn(CCN3CCSCC3)nc2C)cn1`, the cytotoxicity at 70.5 h turned out to be 24.8%.

For `CNC(=O)c1nc(CN2CCOC(C(F)(F)F)C2)no1` (centres undefined), the cytotoxicity at 70.5 h turned out to be 28.6%.

For `Cc1cc(N2CCC(n3cc(CN4CCSCC4)nn3)CC2)ccn1`, the cytotoxicity at 70.5 h worked out at 1.06%.

For `CCc1cnc(C)nc1NCCN1CCOCC1`, the cytotoxicity at 70.5 h is -0.575%.

`CN(CC(O)CO)c1nc(-c2cccnc2)nc2c1CCNC2` (centres undefined): the cytotoxicity at 70.5 h was -17.2%.

Take `O=C(CCc1cn[nH]c1)N1C[C@@H](CN2CCCCCC2)[C@@H](CO)C1`: the cytotoxicity at 70.5 h is -8.48%.

Regarding `CC(C)C[C@@H](CO)n1cc(-c2cnc(-c3ccco3)nc2)nn1`, the cytotoxicity at 70.5 h was -6.45%.

As for `CCC[C@H]1CN(Cc2ccc(N(C)C)nc2)C[C@@H]1NS(=O)(=O)CC`, the cytotoxicity at 70.5 h is -1.04%.

Regarding `CC(C)C(=O)NCC(=O)N1CCC2(CC1)c1ccccc1[C@@H](N)[C@@H]2O`, the cytotoxicity at 70.5 h is 13.2%.

Regarding `CC(CCn1cccn1)Nc1ccc(-c2nccn2C)nn1` (centres undefined), the cytotoxicity at 70.5 h came to 22.7%.

Turning to `Cc1cc(C)nc(N2CCN(Cc3cc4n(n3)CCNC4)CC2)n1`, the cytotoxicity at 70.5 h was -8.76%.

For the molecule `CCN(Cc1cnn(CC)c1)C(=O)Cn1c(=O)c(C)nc2ccccc21`, the cytotoxicity at 70.5 h was -17.7%.

For the molecule `O=C(O)c1cc(-c2cccnc2)cc(S(=O)(=O)NCc2ccccn2)c1`, the cytotoxicity at 70.5 h was -5.41%.

Regarding `CCn1ncnc1C(C)Nc1cc(C2CCNCC2)nc(C)n1` (centres undefined), the cytotoxicity at 70.5 h worked out at 26.8%.

With `COC1CCN(C(=O)Cn2ncc(N3CCCCC3)cc2=O)C1` (centres undefined), the cytotoxicity at 70.5 h is -2.54%.

As for `Cc1[nH]c2c(F)cccc2c1CC(=O)NCCCNc1cccnc1`, the cytotoxicity at 70.5 h was -11.8%.

Consider `Cc1ccc(C)c(OCCNC(=O)C2CCOC2)c1` (centres undefined), for which the cytotoxicity at 70.5 h was -1.02%.

As to `CC(c1cccc(-c2ncccc2F)c1)N(C)C` (centres undefined), the cytotoxicity at 70.5 h was -14.8%.

`O=C(c1ccc(C2CCCN2)s1)N1CCN(C(=O)N2CCOCC2)CC1` (centres undefined): the cytotoxicity at 70.5 h was -6.24%.

For the molecule `CC(C)c1cc(N[C@H](C(N)=O)C(C)C)n2nccc2n1`, the cytotoxicity at 70.5 h is -4.75%.

As to `COc1cccc(Cn2ncnc2CNC(C)=O)c1`, the cytotoxicity at 70.5 h was -10.5%.

With `CC(=O)NCC(=O)N1CCc2[nH]c(-c3ccccc3)nc2C1`, the cytotoxicity at 70.5 h was -1.22%.

For `CCSCCNC(=O)Nc1cc(C(=O)N2CCOCC2)ccc1Cl`, the cytotoxicity at 70.5 h was -3.96%.

With `CNS(=O)(=O)c1ccc(CN2CCN3CCNC(=O)C3C2)cc1` (centres undefined), the cytotoxicity at 70.5 h was -6.1%.

On to `COC(=O)c1cc(OCC2CCC2)cc(C(=O)N[C@@H]2CCCNC2)c1`, for which the cytotoxicity at 70.5 h is -18.2%.

As to `COc1cccc(OC2CN(C(=O)C3CCCN(C(=O)N(C)C)C3)C2)c1` (centres undefined), the cytotoxicity at 70.5 h was determined as 26.8%.

For `CSCc1noc(CN2CCC3(CC2)CC(=O)N(CC=C(C)C)C3)n1`, the cytotoxicity at 70.5 h is -11.8%.

As to `CC(c1ccc2c(c1)OCCO2)N(C)C(=O)c1ccnnc1` (centres undefined), the cytotoxicity at 70.5 h was -5.69%.

On to `COc1ccc(-n2ccnc2-c2cnc(C(C)C)nc2)cc1C(=O)O`, for which the cytotoxicity at 70.5 h is -3.39%.

Regarding `OCC1(CC2CC2)CCCN(Cc2ccc(C(F)(F)F)nc2)C1` (centres undefined), the cytotoxicity at 70.5 h is -6.45%.

`CC(=O)N1C[C@@H]2CC[C@H](C1)N(S(=O)(=O)c1ccc(C#N)cc1Cl)C2`: the cytotoxicity at 70.5 h was -12.7%.

For the molecule `Cc1ccc(-c2ncc(C(=O)N3CCC[C@H](N)C3)c(O)n2)cc1`, the cytotoxicity at 70.5 h was -6.29%.

On to `Cc1ccc(NC2CCCN(C3Cc4ccccc4C3)C2)nn1` (centres undefined), for which the cytotoxicity at 70.5 h was -4.1%.

Regarding `Cc1nc(-c2cccnc2)ncc1C(=O)N1CCC(C(C)N(C)C)CC1` (centres undefined), the cytotoxicity at 70.5 h was -2.91%.

For `CCN1CCC(N2CCN(c3cc(-c4nc(C)no4)ccn3)CC2)CC1`, the cytotoxicity at 70.5 h stood at 11.7%.

On to `COC[C@]1(O)CCN(C2CCN(c3ccc(OC)cc3)CC2)CC1(C)C`, for which the cytotoxicity at 70.5 h amounted to 23.9%.

For the molecule `Cc1cc(C)n(C2CCN(c3ncnc4sc5c(c34)CCNC5)C2)n1` (centres undefined), the cytotoxicity at 70.5 h was -18.5%.

As for `O=c1c2cccc(C(F)(F)F)c2ncn1C1CCNC1` (centres undefined), the cytotoxicity at 70.5 h is -13.6%.

On to `c1ccc(Oc2ccc(OC34CCCN(CC3)C4)cc2)cc1` (centres undefined), for which the cytotoxicity at 70.5 h is -9.13%.

With `O=C(CC1CCc2ccccc21)NCCSc1ccccn1` (centres undefined), the cytotoxicity at 70.5 h is 11.8%.

In the case of `COc1ccccc1CN(Cc1cccc(C)c1)C(=O)[C@@H](N)CC(=O)O`, the cytotoxicity at 70.5 h came to 8.65%.

Regarding `CN(C)C(=O)CN1C[C@@H]2CC[C@H](C1)N(Cc1ccc(Cl)cc1Cl)C2`, the cytotoxicity at 70.5 h is 2.51%.

Turning to `Cc1noc(-c2ccc(N3CCC[C@H]3CO)nc2)n1`, the cytotoxicity at 70.5 h is -0.652%.

Regarding `CCc1nnsc1C(=O)N1CCCC(c2nc3ccccc3[nH]2)C1` (centres undefined), the cytotoxicity at 70.5 h is -14.3%.

For the molecule `CN(C)C(=O)N1CC[C@]2(O)CCN(C(=O)c3ccc(C#N)nc3)C[C@@H]2C1`, the cytotoxicity at 70.5 h was 3.74%.

On to `O=C(NCCOCCO)[C@@]12CNC[C@@H]1CN(C1CCCC1)C2`, for which the cytotoxicity at 70.5 h stood at 2.24%.

On to `O=C(c1cnc(Nc2ccccc2)nc1)N1CCC2(CCNCC2)CC1`, for which the cytotoxicity at 70.5 h was -13.5%.

As to `COc1ccccc1-c1ncc(CN2CCC3(CCN(C)C3)CC2)cn1`, the cytotoxicity at 70.5 h is -8.29%.

Consider `O=C(N[C@@H]1CCN(C(=O)c2cc[nH]c2)C[C@H]1O)c1ccccn1`, for which the cytotoxicity at 70.5 h is -0.892%.

`O=C(CCNC(=O)c1ccccc1F)NCCNc1cccnc1`: the cytotoxicity at 70.5 h was determined as 1.94%.

In the case of `CCc1nc2ccccc2n1C(CC)C(=O)N(C)Cc1nc(C)c[nH]1` (centres undefined), the cytotoxicity at 70.5 h amounted to 21.7%.

`Cn1cnnc1CC1CCN(Cc2c(Cl)cncc2Cl)CC1`: the cytotoxicity at 70.5 h was determined as 16.9%.

Consider `CCNc1ncc(C(=O)NCCc2ccc(C)c(C)c2)cn1`, for which the cytotoxicity at 70.5 h was -4.37%.

Turning to `CCn1ncc2c1NC(=O)CC2c1cnc(-c2ccccn2)nc1` (centres undefined), the cytotoxicity at 70.5 h is -2.85%.

As for `Cc1ncoc1C(=O)N1CCc2[nH]nc(-c3ccc4c(c3)OCO4)c2C1`, the cytotoxicity at 70.5 h was 16.8%.

On to `CS(=O)(=O)c1ccc(CC(=O)N2CCN3CCNC(=O)C3C2)cc1` (centres undefined), for which the cytotoxicity at 70.5 h was -2.91%.

With `CN(Cc1noc2c1CCCC2)C(=O)Nc1cncc(F)c1`, the cytotoxicity at 70.5 h is -7.85%.

On to `CC(C)CNC(=O)CN1CCCC(c2ccc(C(=O)O)cc2)C1` (centres undefined), for which the cytotoxicity at 70.5 h is -6.21%.

Take `CN(Cc1ccccc1-n1cccn1)c1nc(N)nc2c1CCNCC2`: the cytotoxicity at 70.5 h was 4.77%.

Turning to `Cc1ccccc1N1CCN(C(=O)c2cnc(C3CC3)nc2)C(C)C1` (centres undefined), the cytotoxicity at 70.5 h is -2.79%.

Regarding `Cc1ncc(CN2CCC3(CC2)CC(=O)N(C)C3)cn1`, the cytotoxicity at 70.5 h is 4.13%.

As for `Cc1oc(C(C)C)cc1C(=O)N1C[C@H]2CC[C@@H]1CN(S(=O)(=O)N(C)C)C2`, the cytotoxicity at 70.5 h is -7.52%.

On to `O=C(c1ccccn1)N1C[C@@H]2CC[C@H](C1)N(C(=O)Cc1cccs1)C2`, for which the cytotoxicity at 70.5 h was -10%.
